Test results as given in ChEMBL document CHEMBL1128959, “Quinoline-substituted dihydroindoles as cysLT1 (LTD4 receptor) antagonists” (Bioorg Med Chem Lett, 1996).

Tests used:
[1] = target: T1, Cysteinyl leukotriene receptor 1 (Cavia porcellus) (UniProt Q2NNR5); test: Compound was tested for its inhibitory activity against specific binding of [3H]LTD4 to guinea pig ileum.; format: tissue-based
T1 sequence (whole entry): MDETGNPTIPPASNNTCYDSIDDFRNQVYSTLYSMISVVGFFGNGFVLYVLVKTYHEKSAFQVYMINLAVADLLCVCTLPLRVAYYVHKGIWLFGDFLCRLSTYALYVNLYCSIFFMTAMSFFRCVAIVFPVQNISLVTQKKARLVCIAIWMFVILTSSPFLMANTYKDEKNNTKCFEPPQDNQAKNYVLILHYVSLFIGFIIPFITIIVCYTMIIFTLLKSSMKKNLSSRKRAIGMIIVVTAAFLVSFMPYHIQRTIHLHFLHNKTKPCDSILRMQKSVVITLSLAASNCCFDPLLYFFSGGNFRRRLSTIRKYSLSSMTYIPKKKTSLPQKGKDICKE

[2] = target: T1, Cysteinyl leukotriene receptor 1 (Cavia porcellus); test: Compound was tested for its inhibitory activity against specific binding of [3H]LTD4 to guinea pig trachea.; format: tissue-based
[3] = target: T2, Cysteinyl leukotriene receptor 1 (Cavia porcellus, UniProt Q2NNR5); test: Compound was tested for its inhibitory activity against specific binding of [3H]LTD4 to guinea pig lung membrane.; format: tissue-based
T2 sequence (Q2NNR5 whole entry): T1 sequence (whole entry)

Cavia porcellus [4] = test: Inhibition of aerosol administered LTD4-induced airway obstruction after oral administration in guinea pig 2 hr after administration; format: functional
Cavia porcellus [5] = test: Inhibition of aerosol administered LTD4-induced airway obstruction after oral administration in guinea pig 6 hr after administration; format: functional

| SMILES | pKB [1] | pKB [2] | Ki [3] | Inhibition (Cavia porcellus [4]) | Inhibition (Cavia porcellus [5]) |
| --- | --- | --- | --- | --- | --- |
| C(=C\c1ccc2ccccc2n1)/c1cccc(CN2CCc3cccc(CCc4nnn[nH]4)c32)c1 | 8.6 |  |  |  |  |
| Clc1ccc2ccc(/C=C/c3cccc(Cn4ccc5cccc(CCc6nnn[nH]6)c54)c3)nc2c1 |  |  |  | 69% | 21% |
| Clc1ccc2ccc(/C=C/c3cccc(CN4CCc5cccc(CCc6nnn[nH]6)c54)c3)nc2c1 | 8.6 | 7 |  | 91% | 74% |
| Clc1ccc2ccc(COc3ccc(Cn4ccc5cccc(CCc6nnn[nH]6)c54)cc3)nc2c1 |  |  |  | 16% |  |
| Clc1ccc2ccc(/C=C/c3cccc(CN4CCc5cccc(OCc6nn[nH]n6)c54)c3)nc2c1 | 8.6 |  | 5.01 nM |  |  |

More lines, main results first:

| pKB [1] | pKB [2] | Ki [3] | SMILES | Inhibition (Cavia porcellus [4]) | Inhibition (Cavia porcellus [5]) |
| --- | --- | --- | --- | --- | --- |
| 8.3 | 7.9 |  | c1cc(CCc2nnn[nH]2)c2c(c1)CCN2Cc1ccc(OCc2ccc3ccccc3n2)cc1 |  |  |
| 8.6 |  | 31.6 nM | Clc1ccc2ccc(/C=C/c3ccc(CN4CCc5cccc(CCc6nnn[nH]6)c54)cc3)nc2c1 |  |  |
| 8.4 | 7.8 |  | Clc1ccc2ccc(COc3cccc(CN4CCc5cccc(CCc6nnn[nH]6)c54)c3)nc2c1 |  |  |
| 8.5 | 7.6 |  | Clc1ccc2ccc(COc3ccc(CN4CCc5cccc(CCc6nnn[nH]6)c54)cc3)nc2c1 | 51% | 81% |
